Assay results published in patent US20050070554A1, “Substituted heterocyclic compounds and methods of use” (Amgen Inc., priority 2003, published 2005).

Target: T1, LCK (Homo sapiens, UniProt P06239)
T1 construct: LCK KD GST (225-509); GST
Experiment: LCK-Homogeneous Time Resolved Fluorescent (HTRF) Kinase Assay
Assay type: biochemical
Conditions: not given
Summary of the method: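 LCK phosphorylates biotinylated Gastrin peptide in the presence of ATP for 90 min in 50 mM HEPES pH 7.5, 50 mM NaCl, 20 mM MgCl, 5 mM MnCl, 2 mM DTT, 0.05% BSA. Reaction stopped with EDTA-containing detection reagent, then equilibrated 30 min before HTRF read.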

T1 sequence (P06239 225-509): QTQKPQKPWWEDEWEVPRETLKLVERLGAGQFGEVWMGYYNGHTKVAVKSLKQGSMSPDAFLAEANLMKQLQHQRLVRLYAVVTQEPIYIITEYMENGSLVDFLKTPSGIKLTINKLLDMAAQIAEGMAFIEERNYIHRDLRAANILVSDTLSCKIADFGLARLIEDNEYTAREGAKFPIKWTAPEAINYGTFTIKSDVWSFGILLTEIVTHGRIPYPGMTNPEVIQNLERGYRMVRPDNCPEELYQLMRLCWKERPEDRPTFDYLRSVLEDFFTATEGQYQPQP

IC50, < 1000 nM:
CN1CCN(c2ccc(Nc3ncc4c(=O)n(-c5c(Cl)cccc5Cl)c5nc6ccccc6n5c4n3)cc2)CC1 [No. 67, 6-(2,6-dichlorophenyl)-2-((4-(4-methyl-1-piperazinyl)phenyl)amino)pyrimido[5′,4′:5,6]-pyrimido[1,2-a]benzimidazol-5(6H)-one]
COc1ccc(Cl)cc1-n1c(=O)c2cnc(Nc3ccc(N4CCN(C)CC4)cc3)nc2n2c3ccccc3nc12 [No. 76, 6-(5-chloro-2-(methyloxy)phenyl)-2-((4-(4-methyl-1-piperazinyl)phenyl)amino)pyrimido[5′,4′:5,6]-pyrimido[1,2-a]benzimidazol-5(6H)-one]
CN1CCN(c2ccc(Nc3ncc4c(=O)n(-c5c(Cl)cc(Cl)cc5Cl)c5nc6ccccc6n5c4n3)cc2)CC1 [No. 77, 2-((4-(4-methyl-1-piperazinyl)phenyl)amino)-6-(2,4,6-trichlorophenyl)pyrimido[5′,4′:5,6]-pyrimido[1,2-a]benzimidazol-5(6H)-one]
Cc1ccc(-n2c(=O)c3cnc(Nc4ccc(N5CCN(C)CC5)cc4)nc3n3c4ccccc4nc23)cc1 [No. 78, 6-(4-methylphenyl)-2-((4-(4-methyl-1-piperazinyl)-phenyl)amino)pyrimido[5′,4′:5,6]pyrimido[1,2-a]-benzimidazol-5(6H)-one]
Cc1cccc(-n2c(=O)c3cnc(Nc4ccc(N5CCN(C)CC5)cc4)nc3n3c4ccccc4nc23)c1 [No. 80, 6-(3-methylphenyl)-2-((4-(4-methyl-1-piperazinyl)-phenyl)amino)pyrimido[5′,4′:5,6]pyrimido[1,2-a]-benzimidazol-5(6H)-one]
COc1cccc(-n2c(=O)c3cnc(Nc4ccc(N5CCN(C)CC5)cc4)nc3n3c4ccccc4nc23)c1 [No. 81, 6-(3-(methyloxy)phenyl)-2-((4-(4-methyl-1-piperazinyl)phenyl)amino)pyrimido[5′,4′:5,6]-pyrimido[1,2-a]benzimidazol-5(6H)-one]

Same assay, conditions: read-out: activity in the LCK-HTRF Kinase Assay

IC50, < 1000 nM:
CCN(CC)CCN(C)C(=O)c1cccc(Nc2ncc3c(=O)n(-c4c(C)cccc4C)c4nc5ccccc5n4c3n2)c1 [No. 66, N-(2-(diethylamino)ethyl)-3-((6-(2,6-dimethylphenyl)-5-oxo-5,6-dihydropyrimido[5′,4′:5,6]pyrimido[1,2-a]-benzimidazol-2-yl)amino)-N-methylbenzamide]
C[C@H](c1ccccc1)n1c(=O)c2cnc(Nc3ccc(N4CCN(C)CC4)cc3)nc2n2c3ccccc3nc12 [No. 68, 2-((4-(4-methyl-1-piperazinyl)phenyl)amino)-6-((1R)-1-phenylethyl)pyrimido[5′,4′:5,6]pyrimido[1,2-a]-benzimidazol-5(6H)-one]
Cc1cccc(C)c1-n1c(=O)c2cnc(Nc3ccc(N4CCN(CCO)CC4)cc3)nc2n2c3ccccc3nc12 [No. 69, 6-(2,6-dimethylphenyl)-2-((4-(4-(2-hydroxyethyl)-1-piperazinyl)phenyl)amino)pyrimido[5′,4′:5,6]-pyrimido[1,2-a]benzimidazol-5(6H)-one]
Cc1cccc(C)c1-n1c(=O)c2cnc(Nc3ccc(OCCN4CCN(C(C)C)CC4)c(Cl)c3)nc2n2c3ccccc3nc12 [No. 70, 2-((3-chloro-4-((2-(4-(1-methylethyl)-1-piperazinyl)-ethyl)oxy)phenyl)amino)-6-(2,6-dimethylphenyl)-pyrimido[5′,4′:5,6]pyrimido[1,2-a]benzimidazol-5(6H)-one]
Cc1cccc(C)c1-n1c(=O)c2cnc(Nc3ccc(C(=O)NCCN(C)C)cc3)nc2n2c3ccccc3nc12 [No. 71, N-(2-(dimethylamino)ethyl)-4-((6-(2,6-dimethylphenyl)-5-oxo-5,6-dihydropyrimido[5′,4′:5,6]pyrimido[1,2-a]-benzimidazol-2-yl)amino)benzamide]
Cc1cccc(C)c1-n1c(=O)c2cnc(Nc3ccc(OCCCN4CCN(C(C)C)CC4)c(F)c3)nc2n2c3ccccc3nc12 [No. 72, 6-(2,6-dimethylphenyl)-2-((3-fluoro-4-((3-(4-(1-methylethyl)-1-piperazinyl)propyl)oxy)phenyl)-amino)pyrimido[5′,4′:5,6]pyrimido[1,2-a]-benzimidazol-5(6H)-one]
Cc1cccc(C)c1-n1c(=O)c2cnc(Nc3ccc(OCCCN4CCN(C)CC4)c(Cl)c3)nc2n2c3ccccc3nc12 [No. 73, 2-((3-chloro-4-((3-(4-methyl-1-piperazinyl)propyl)-oxy)phenyl)amino)-6-(2,6-dimethylphenyl)-pyrimido[5′,4′:5,6]pyrimido[1,2-a]benzimidazol-5(6H)-one]
Cc1cccc(C)c1-n1c(=O)c2cnc(Nc3ccc(N4CCCN(C)CC4)cc3)nc2n2c3ccccc3nc12 [No. 74, 6-(2,6-dimethylphenyl)-2-((4-(4-methyl-1,4-diazepan-1-yl)phenyl)amino)pyrimido[5′,4′:5,6]pyrimido[1,2-a]benzimidazol-5(6H)-one]
Cc1cccc(C)c1-n1c(=O)c2cnc(Nc3ccc(N4CCCNCC4)cc3)nc2n2c3ccccc3nc12 [No. 75, 2-((4-(1,4-diazepan-1-yl)phenyl)amino)-6-(2,6-dimethylphenyl)pyrimido[5′,4′:5,6]pyrimido[1,2-a]-benzimidazol-5(6H)-one]
CN1CCN(c2ccc(Nc3ncc4c(=O)n(-c5ccccc5F)c5nc6ccccc6n5c4n3)cc2)CC1 [No. 79, 6-(2-fluorophenyl)-2-((4-(4-methyl-1-piperazinyl)-phenyl)amino)pyrimido[5′,4′:5,6]pyrimido[1,2-a]-benzimidazol-5(6H)-one]
CN1CCN(c2ccc(Nc3ncc4c(=O)n(-c5cccc(F)c5)c5nc6ccccc6n5c4n3)cc2)CC1 [No. 83, 6-(3-fluorophenyl)-2-((4-(4-methyl-1-piperazinyl)-phenyl)amino)pyrimido[5′,4′:5,6]pyrimido[1,2-a]-benzimidazol-5(6H)-one]
CN1CCN(c2ccc(Nc3ncc4c(=O)n(-c5ccc(F)cc5)c5nc6ccccc6n5c4n3)cc2)CC1 [No. 84, 6-(4-fluorophenyl)-2-((4-(4-methyl-1-piperazinyl)-phenyl)amino)pyrimido[5′,4′:5,6]pyrimido[1,2-a]-benzimidazol-5(6H)-one]
Cc1cccc(C)c1-n1c(=O)c2cnc(Nc3ccc(N4CCN(C)CC4)cc3)nc2n2ccnc12 [No. 87, 6-(2,6-dimethylphenyl)-2-((4-(4-methyl-1-piperazinyl)phenyl)amino)imidazo[1,2-a]-pyrimido[5,4-e]pyrimidin-5(6H)-one]
CN1CCN(c2ccc(Nc3ncc4c(=O)n(-c5c(F)cccc5F)c5nc6ccccc6n5c4n3)cc2)CC1 [No. 88, 6-(2,6-difluorophenyl)-2-((4-(4-methyl-1-piperazinyl)-phenyl)amino)pyrimido[5′,4′:5,6]pyrimido[1,2-a]-benzimidazol-5(6H)-one]
CN1CCN(c2ccc(Nc3ncc4c(=O)n(-c5c(F)c(F)c(F)c(F)c5F)c5nc6ccccc6n5c4n3)cc2)CC1 [No. 89, 2-((4-(4-methyl-1-piperazinyl)phenyl)amino)-6-(pentafluorophenyl)pyrimido[5′,4′:5,6]pyrimido[1,2-a]benzimidazol-5(6H)-one]
